PubChem BioAssay AID220 (DTP/NCI, 2004)
Several values for one entry are separate records, joined by “and”; a condition that tells them apart may be missing. Identical values can stand only once. Records with an inconclusive call do not appear.

Test system: CD8F1 mice, subcutaneous mammary adenocarcinoma, T/C%
Test: NCI In Vivo Anticancer Drug Screen. Data for tumor model Mammary Adenocarcinoma CD8F1 (subcutaneous) in CD8F1
Conditions: higher = larger tumour
Procedure, shortened: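 Ratio of treated to vehicle-control outcome, based on either survival or tumor size, in mice bearing transplantable tumors given the test compound.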

[1] = endpoint: median tumor weight (est.), dose: 2.0 mg/kg/injection, schedule: Q07DX005 (ip), vehicle: saline
[2] = endpoint: median tumor weight change, dose: 16.0 mg/kg/injection, schedule: Q01DX001 (ip), vehicle: saline with Tween-80
[3] = endpoint: median tumor weight (est.), dose: 6.25 mg/kg/injection, schedule: Q07DX005 (ip), vehicle: saline with Tween-80
[4] = endpoint: median tumor weight (est.), dose: 12.5 mg/kg/injection, schedule: Q07DX005 (ip), vehicle: saline with Tween-80
[5] = endpoint: median tumor weight (est.), dose: 25.0 mg/kg/injection, schedule: Q07DX005 (ip), vehicle: saline with Tween-80
[6] = endpoint: median tumor weight (est.), dose: 6.25 mg/kg/injection, schedule: Q07DX005 (ip), vehicle: saline
[7] = endpoint: median tumor weight (est.), dose: 12.5 mg/kg/injection, schedule: Q07DX005 (ip), vehicle: saline
[8] = endpoint: median tumor weight (est.), dose: 25.0 mg/kg/injection, schedule: Q07DX005 (ip), vehicle: saline
[9] = endpoint: median tumor weight change, dose: 125.0 mg/kg/injection, schedule: Q01DX001 (ip), vehicle: saline with Tween-80
[10] = endpoint: median tumor weight change, dose: 250.0 mg/kg/injection, schedule: Q01DX001 (ip), vehicle: saline with Tween-80

Compound: O=C(O)CCCc1ccc(N(CCCl)CCCl)cc1
- T/C [1]: 234 % of control and 83 % of control
- T/C (endpoint: median tumor weight (est.), dose: 4.0 mg/kg/injection, schedule: Q07DX005 (ip), vehicle: saline with Tween-80): 77 % of control
- T/C (endpoint: median tumor weight (est.), dose: 7.5 mg/kg/injection, schedule: Q07DX005 (ip), vehicle: Klucel (hydroxypropylcellulose) (HPC)): 88 % of control
- T/C (endpoint: median tumor weight (est.), dose: 8.0 mg/kg/injection, schedule: Q07DX005 (ip), vehicle: saline with Tween-80): 46 % of control
- T/C (endpoint: median tumor weight (est.), dose: 15.0 mg/kg/injection, schedule: Q07DX005 (ip), vehicle: Klucel (hydroxypropylcellulose) (HPC)): 26 % of control
- T/C (endpoint: median tumor weight (est.), dose: 16.0 mg/kg/injection, schedule: Q07DX005 (ip), vehicle: saline with Tween-80): 43 % of control
- T/C (endpoint: median tumor weight (est.), dose: 30.0 mg/kg/injection, schedule: Q07DX005 (ip), vehicle: Klucel (hydroxypropylcellulose) (HPC)): 22 % of control
- T/C (endpoint: median tumor weight (est.), dose: 32.0 mg/kg/injection, schedule: Q07DX005 (ip), vehicle: saline with Tween-80): 16 % of control
- T/C (endpoint: median tumor weight (est.), dose: 32.0 mg/kg/injection, schedule: Q07DX005 (ip), vehicle: saline): 3 % of control and 14 % of control
- T/C [2]: 57 % of control
- T/C (endpoint: median tumor weight change, dose: 32.0 mg/kg/injection, schedule: Q01DX001 (ip), vehicle: saline with Tween-80): 62 % of control
- T/C (endpoint: median tumor weight change, dose: 64.0 mg/kg/injection, schedule: Q01DX001 (ip), vehicle: saline with Tween-80): 38 % of control

Compound: O=C1C2CC=CCC2C(=O)N1SC(Cl)(Cl)Cl (centres undefined)
- T/C (endpoint: median tumor weight (est.), dose: 3.12 mg/kg/injection, schedule: Q07DX005 (ip), vehicle: saline with Tween-80): 78 % of control
- T/C [3]: 70 % of control
- T/C [4]: 89 % of control
- T/C [5]: 74 % of control

Compound: O=[N+]([O-])O.[Ga]
- T/C (endpoint: mean tumor weight, dose: 75.0 mg/kg/injection, schedule: Q01DX009 (ip), vehicle: saline): 120 % of control
- T/C [6]: 94 % of control
- T/C [7]: 114 % of control
- T/C (endpoint: median tumor weight (est.), dose: 25.0 mg/kg/injection, schedule: Q04DX005 (ip), vehicle: saline): 91 % of control
- T/C (endpoint: median tumor weight (est.), dose: 25.0 mg/kg/injection, schedule: Q07DX004 (ip), vehicle: saline): 120 % of control
- T/C [8]: 120 % of control
- T/C (endpoint: median tumor weight (est.), dose: 50.0 mg/kg/injection, schedule: Q07DX004 (ip), vehicle: saline): 184 % of control
- T/C (endpoint: median tumor weight (est.), dose: 100.0 mg/kg/injection, schedule: Q04DX005 (ip), vehicle: saline): 153 % of control

Compound: C[CH2][Sn]([CH2]C)([CH2]C(=O)OC)[CH2]C(=O)OC
- T/C [2]: 78 % of control

Compound: O=Cc1ccc([N+](=O)[O-])s1
- T/C [3]: 225 % of control
- T/C [4]: 71 % of control
- T/C [5]: 295 % of control
- T/C (endpoint: median tumor weight (est.), dose: 50.0 mg/kg/injection, schedule: Q07DX005 (ip), vehicle: saline with Tween-80): 156 % of control

Compound: Cc1c(N)nc(C(CC(N)=O)NCC(N)C(N)=O)nc1C(=O)NC(C(=O)NC(C)C(O)CC(=O)NC(C(=O)NC(OC1OC(C)C(N)C(O)C1O)C(O)c1nc(-c2nc(C(=O)NCCCC(N)CC(=O)NCCCNCCCCN)cs2)cs1)C(C)O)C(OC1OC(CO)C(O)C(O)C1OC1OC(CO)C(O)C(OC(N)=O)C1O)c1cnc[nH]1 (centres undefined)
- T/C [1]: 15 % of control
- T/C (endpoint: median tumor weight (est.), dose: 4.0 mg/kg/injection, schedule: Q07DX005 (ip), vehicle: saline): 20 % of control
- T/C (endpoint: median tumor weight (est.), dose: 8.0 mg/kg/injection, schedule: Q07DX005 (ip), vehicle: saline): 10 % of control

Compound: COC1=NCN=C2SC=C(N)N=C12
- T/C [6]: 208 % of control
- T/C [7]: 76 % of control
- T/C [8]: 107 % of control
- T/C (endpoint: median tumor weight (est.), dose: 50.0 mg/kg/injection, schedule: Q07DX005 (ip), vehicle: saline): 156 % of control

Compound: COc1cc2c(c(OC)c1O)-c1ccc(OC)c(=O)cc1[C@@H](NC(=O)C(F)(F)F)CC2
- T/C (endpoint: median tumor weight change, dose: 3.12 mg/kg/injection, schedule: Q01DX001 (ip), vehicle: Klucel (hydroxypropylcellulose) (HPC)): 100 % of control
- T/C (endpoint: median tumor weight change, dose: 6.25 mg/kg/injection, schedule: Q01DX001 (ip), vehicle: Klucel (hydroxypropylcellulose) (HPC)): 203 % of control
- T/C (endpoint: median tumor weight change, dose: 12.5 mg/kg/injection, schedule: Q01DX001 (ip), vehicle: Klucel (hydroxypropylcellulose) (HPC)): 74 % of control
- T/C (endpoint: median tumor weight change, dose: 25.0 mg/kg/injection, schedule: Q01DX001 (ip), vehicle: Klucel (hydroxypropylcellulose) (HPC)): 168 % of control
- T/C (endpoint: median tumor weight change, dose: 50.0 mg/kg/injection, schedule: Q01DX001 (ip), vehicle: Klucel (hydroxypropylcellulose) (HPC)): 21 % of control

Compound: CC1OC1C(=O)C1(O)C(C)C(O)C23OC2(C(O)c2c(O)cccc2C3=O)C1O (centres undefined)
- T/C (endpoint: median tumor weight change, dose: 10.0 mg/kg/injection, schedule: Q01DX001 (ip), vehicle: Klucel (hydroxypropylcellulose) (HPC)): 84 % of control and 100 % of control and 107 % of control
- T/C (endpoint: median tumor weight change, dose: 40.0 mg/kg/injection, schedule: Q01DX001 (ip), vehicle: Klucel (hydroxypropylcellulose) (HPC)): 66 % of control and 87 % of control

Compound: COc1ccc2c(c1)CCC(c1ccccc1)=C2c1ccc(OCCN2CCCC2)cc1
- T/C (endpoint: median tumor weight (est.), dose: 6.25 mg/kg/injection, schedule: Q07DX005 (ip), vehicle: Klucel (hydroxypropylcellulose) (HPC)): 119 % of control
- T/C (endpoint: median tumor weight (est.), dose: 12.5 mg/kg/injection, schedule: Q07DX005 (ip), vehicle: Klucel (hydroxypropylcellulose) (HPC)): 99 % of control and 103 % of control
- T/C (endpoint: median tumor weight (est.), dose: 25.0 mg/kg/injection, schedule: Q07DX005 (ip), vehicle: Klucel (hydroxypropylcellulose) (HPC)): 92 % of control and 111 % of control
- T/C (endpoint: median tumor weight (est.), dose: 50.0 mg/kg/injection, schedule: Q07DX005 (ip), vehicle: Klucel (hydroxypropylcellulose) (HPC)): 77 % of control and 80 % of control
- T/C (endpoint: median tumor weight (est.), dose: 100.0 mg/kg/injection, schedule: Q07DX005 (ip), vehicle: Klucel (hydroxypropylcellulose) (HPC)): 75 % of control and 95 % of control

Compound: C/C=C/C=C1/OC(C)=C(C(C)=O)C1=O
- T/C [9]: 94 % of control and 104 % of control
- T/C [10]: 64 % of control

Compound: C=C(C)/C([O-])=N/[N+](C)(C)CC(O)CCCCCCCCCCCC (centres undefined)
- T/C (endpoint: median tumor weight change, dose: 125.0 mg/kg/injection, schedule: Q01DX001 (ip), vehicle: saline): 63 % of control
- T/C (endpoint: median tumor weight change, dose: 250.0 mg/kg/injection, schedule: Q01DX001 (ip), vehicle: saline): 111 % of control

Compound: COc1cccc2c1C(=O)c1c(O)c3c(c(O)c1C2=O)C[C@@](O)(C(O)CO)C[C@@H]3OC1CC(N(Cc2ccccc2)Cc2ccccc2)C(O)C(C)O1 (some centres undefined)
- T/C (endpoint: median tumor weight change, dose: 62.0 mg/kg/injection, schedule: Q01DX001 (ip), vehicle: water): 14 % of control
- T/C (endpoint: median tumor weight change, dose: 125.0 mg/kg/injection, schedule: Q01DX001 (ip), vehicle: water): -48 % of control

Compound: CCC1CN2C(=N1)c1ccccc1-c1cc(Cl)ccc12 (centres undefined)
- T/C (endpoint: median tumor weight (est.), dose: 3.12 mg/kg/injection, schedule: Q07DX005 (ip), vehicle: saline): 82 % of control
- T/C (endpoint: median tumor weight (est.), dose: 3.12 mg/kg/injection, schedule: Q07DX005 (ip), vehicle: suspension in saline): 111 % of control
- T/C [6]: 42 % of control
- T/C [7]: 43 % of control
- T/C (endpoint: median tumor weight (est.), dose: 12.5 mg/kg/injection, schedule: Q07DX005 (ip), vehicle: suspension in saline): 98 % of control
- T/C [8]: 30 % of control
- T/C (endpoint: median tumor weight (est.), dose: 25.0 mg/kg/injection, schedule: Q07DX005 (ip), vehicle: suspension in saline): 64 % of control
- T/C (endpoint: median tumor weight (est.), dose: 50.0 mg/kg/injection, schedule: Q07DX005 (ip), vehicle: suspension in saline): 97 % of control

Compound: NC(=O)c1c[se]c(C2OC(CO)C(O)C2O)n1 (centres undefined)
- T/C (endpoint: median tumor weight change, dose: 50.0 mg/kg/injection, schedule: Q01DX001 (ip), vehicle: water): 124 % of control
- T/C (endpoint: median tumor weight change, dose: 75.0 mg/kg/injection, schedule: Q01DX001 (ip), vehicle: water): 45 % of control
- T/C (endpoint: median tumor weight change, dose: 100.0 mg/kg/injection, schedule: Q01DX001 (ip), vehicle: water): 83 % of control
- T/C (endpoint: median tumor weight change, dose: 150.0 mg/kg/injection, schedule: Q01DX001 (ip), vehicle: water): 73 % of control
- T/C (endpoint: median tumor weight change, dose: 200.0 mg/kg/injection, schedule: Q01DX001 (ip), vehicle: water): 89 % of control
- T/C (endpoint: median tumor weight change, dose: 300.0 mg/kg/injection, schedule: Q01DX001 (ip), vehicle: water): 47 % of control
- T/C (endpoint: median tumor weight change, dose: 400.0 mg/kg/injection, schedule: Q01DX001 (ip), vehicle: water): 95 % of control
- T/C (endpoint: median tumor weight change, dose: 600.0 mg/kg/injection, schedule: Q01DX001 (ip), vehicle: water): 43 % of control
- T/C (endpoint: median tumor weight change, dose: 1200.0 mg/kg/injection, schedule: Q01DX001 (ip), vehicle: water): 50 % of control

Compound: FC(F)(F)c1nc2nc(Cl)c(Cl)nc2[nH]1
- T/C (endpoint: median tumor weight change, dose: 62.5 mg/kg/injection, schedule: Q01DX001 (ip), vehicle: saline with Tween-80): 77 % of control
- T/C [9]: 114 % of control
- T/C [10]: 74 % of control
